Patent US20090270435A1 (priority 2006, published 2009)
Structures can show the parent of a compound that is named as a salt.

Target: T1, ACC1 from rat liver (Rattus norvegicus, UniProt P11497)
T1 construct: The livers (for ACC1 preparation) or skeletal muscle tissue (for ACC2 preparation) are removed; from tissue; host or cells: liver of male CD rats (fasted, then fed a high sucrose diet)
Assay: Direct inhibition of ACC1 activity (14C-bicarbonate incorporation)
Assay type: biochemical
In short: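 ACC1 partially purified from livers of fasted/sucrose-refed male rats by PEG and ammonium sulfate fractionation, then preincubated 30 min at 37°C with 10 mM citrate and 1.0 mM MgCl2. Reaction ran 7 min at 37°C, stopped with HCl; acid-stable radioactivity counted by scintillation; HCl-first tubes served as blanks.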

Row | IC50 (ACC1 from rat liver) | Compound | also measured
1 | – | Cc1cc2c(cc1C)C(=O)CC1(CCN(C(=O)c3cccc(-c4cc[nH]n4)c3)CC1)O2 [Ex. M2, 6,7-dimethyl-1′-[3-(1H-pyrazol-3-yl)benzoyl]spiro[chromene-2,4′-piperidin]-4(3H)-one] | IC50 (Table of Examples M1-M36): 73.6 nM
2 | 264 nM | Cc1cc2c(cc1Br)C(=O)CC1(CCN(C(=O)c3cccc4cn[nH]c34)CC1)O2 [Ex. H3, 6-bromo-1′-(1H-indazol-7-ylcarbonyl)-7-methylspiro[chromene-2,4′-piperidin]-4(3H)-one] | –
3 | 375 nM | Cc1cc2c(cc1Cl)C(=O)CC1(CCN(C(=O)c3cccc4[nH]ncc34)CC1)O2 [Ex. J2, 6-chloro-1′-(1H-indazol-4-ylcarbonyl)-7-methylspiro[chromene-2,4′-piperidin]-4(3H)-one] | –
4 | 586 nM | Cc1n[nH]c2cc(C(=O)N3CCC4(CC3)CC(=O)c3cc(C(=O)O)ccc3O4)ccc12 [Ex. F5, 1′-[(3-methyl-1H-indazol-6-yl)carbonyl]-4-oxo-3,4-dihydrospiro[chromene-2,4′-piperidine]-6-carboxylic acid trifluoroacetic acid salt] | –
5 | 180 nM | 5,7-dichloro-1′-[(7-chloro-1H-indazol-5-yl)carbonyl]spiro[chromene-2,4′-piperidin]-4(3H)-one [Ex. B9] | –
6 | 17.5 nM | CCc1cc(C(=O)N2CCC3(CC2)CC(=O)c2cc(C)c(C)cc2O3)cc2cn[nH]c12 [Ex. C1, 1′-[(7-ethyl-1H-indazol-5-yl)carbonyl]-6,7-dimethylspiro[chromene-2,4′-piperidin]-4(3H)-one] | –
7 | 226 nM | Cc1cc2c(cc1Cl)OC1(CCN(C(=O)c3cccc4cn[nH]c34)CC1)CC2=O [Ex. H2, 7-chloro-1′-(1H-indazol-7-ylcarbonyl)-6-methylspiro[chromene-2,4′-piperidin]-4(3H)-one] | –
8 | – | Cc1cc2c(cc1C)C(=O)CC1(CCN(C(=O)c3cccc(-c4ccncn4)c3)CC1)O2 [Ex. P13, 6,7-Dimethyl 1′-[3-(pyrimidin-4-yl)benzoyl]spiro[chromene-2,4′-piperidin]-4(3H)-one] | IC50 (Table of Examples P1-P15): < 3000 nM
9 | 15.5 nM | COc1cccc2c1C(=O)CC1(CCN(C(=O)c3ccc4nc(-c5ccccc5)[nH]c4c3)CC1)O2 [Ex. L35, 5-methoxy-1′-[(2-phenyl-1H-benzimidazol-6-yl)-carbonyl]spiro[chromene-2,4′-piperidin]-4(3H)-one] | –
10 | – | O=C1CC2(CCN(C(=O)c3cccc(-c4cc[nH]n4)c3)CC2)Oc2ccc(C(=O)N3CCCC3)cc21 [Ex. M9, 1′-[3-(1H-pyrazol-3-yl)benzoyl]-6-(pyrrolidin-1-ylcarbonyl)spiro[chromene-2,4′-piperidin]-4(3H)-one] | IC50 (Table of Examples M1-M36): 179 nM
11 | 825 nM | Cc1nc2cc(C(=O)N3CCC4(CC3)CC(=O)c3cc(C)c(C)cc3O4)ccc2[nH]1 [Ex. L24, 6,7-dimethyl-1′-[(2-methyl-1H-benzimidazol-5-yl)carbonyl]spiro[chromene-2,4′-piperidin]-4(3H)-one trifluoroacetic acid salt] | –
12 | 113 nM | Cc1cc(C(=O)N2CCC3(CC2)CC(=O)c2cc(Cl)ccc2O3)cc2cn[nH]c12 [Ex. A26, 6-chloro-1′-[(7-methyl-1H-indazol-5-yl)carbonyl]spiro[chromene-2,4′-piperidin]-4(3H)-one] | –
13 | – | COc1cc(C)c2c(c1)OC1(CCN(C(=O)c3cccc(-c4ccn[nH]4)c3)CC1)CC2=O [Ex. O4, 7-methoxy-5-methyl-1′-[3-(1H-pyrazol-5-yl)benzoyl]spiro[chromene-2,4′-piperidin]-4(3H)-one] | IC50 (Table of Examples O1-O4): 468 nM
14 | 122 nM | COc1ccc2c(c1)OC1(CCN(C(=O)c3cc(C)c4[nH]ncc4c3)CC1)CC2=O [Ex. A24, 7-methoxy-1′-[(7-methyl-1H-indazol-5-yl)carbonyl]spiro[chromene-2,4′-piperidin]-4(3H)-one] | –
15 | – | Cc1cc2c(cc1C)C(=O)CC1(CCN(C(=O)c3cc(-c4cc[nH]n4)ccc3F)CC1)O2 [Ex. P4, 1′-[2-fluoro-5-(1H-pyrazol-3-yl)benzoyl]-6,7-dimethylspiro[chromene-2,4′-piperidin]-4(3H)-one trifluoroacetic acid salt] | IC50 (Table of Examples P1-P15): < 3000 nM
16 | 54.3 nM | COC(=O)c1ccc2c(c1)C(=O)CC1(CCN(C(=O)c3cc(C)c4[nH]nc(C)c4c3)CC1)O2 [Ex. E4, methyl 1′-[(3,7-dimethyl-1H-indazol-5-yl)carbonyl]-4-oxo-3,4-dihydrospiro[chromene-2,4′-piperidine]-6-carboxylate] | –
17 | 850 nM | Cc1ccc2c(c1)OC1(CCN(C(=O)c3cccc4cn[nH]c34)CC1)CC2=O [Ex. H12, 1′-(1H-indazol-7-ylcarbonyl)-7-methylspiro[chromene-2,4-piperidin]4(3H)-one] | –
18 | 4860 nM | Cc1cc2c(cc1Cl)C(=O)CC1(CCN(C(=O)c3ccc4[nH]nnc4c3)CC1)O2 [Ex. L40, 1′-(1H-1,2,3-benzotriazol-5-ylcarbonyl)-6-chloro-7-methylspiro[chromene-2,4′-piperidin]-4(3H)-one] | –
19 | – | O=C1CC2(CCN(C(=O)c3cccc(-c4cc[nH]n4)c3)CC2)Oc2cc(Cl)c(Cl)cc21 [Ex. M8, 6,7-dichloro-1′-[3-(1H-pyrazol-3-yl)benzoyl]spiro[chromene-2,4′-piperidin]-4(3H)-one] | IC50 (Table of Examples M1-M36): 178 nM

Row | IC50 (ACC1 from rat liver) | Compound | also measured
20 | 57.9 nM | Cc1cc2c(cc1C)C(=O)CC1(CCN(C(=O)c3ccc4c(cnn4C)c3)CC1)O2 [Ex. D1, 6,7-dimethyl-1′-[(1-methyl-1H-indazol-5-yl)carbonyl]spiro[chromene-2,4′-piperidin]-4(3H)-one] | –
21 | – | Cc1cc2c(cc1C)C(=O)CC1(CCN(C(=O)c3cccc(-c4cc(C(F)(F)F)[nH]n4)c3)CC1)O2 [Ex. P1, 6,7-dimethyl-1′-{3-[5-(trifluoromethyl)-1H-pyrazol-3-yl]benzoyl}spiro-[chromene-2,4′-piperidin]-4(3H)-one] | IC50 (Table of Examples P1-P15): 215 nM
22 | 106 nM | O=C1CC2(CCN(C(=O)c3ccc4[nH]c5c(c4c3)CCNC5=O)CC2)Oc2ccc(Cl)cc21 [Ex. K3, 6-chloro-1′-[(1-oxo-2,3,4,9-tetrahydro-1H-beta-carbolin-6-yl)carbonyl]spiro[chromene-2,4′-piperidin]-4(3H)-one] | –
23 | > 3000 nM | O=C1CC2(CCN(C(=O)c3cccc4cn[nH]c34)CC2)Oc2ccccc21 | –
24 | 72 nM | Cc1cc2c(c(C)c1Cl)C(=O)CC1(CCN(C(=O)c3cc(C)c4[nH]ncc4c3)CC1)O2 [Ex. A18, 6-chloro-5,7-dimethyl-1′-[(7-methyl-1H-indazol-5-yl)carbonyl]spiro[chromene-2,4′-piperidin]-4(3H)-one] | –
25 | 209 nM | Cc1cc(C(=O)N2CCC3(CC2)CC(=O)c2c(Cl)cc(Cl)cc2O3)cc2cn[nH]c12 [Ex. A30, 5,7-dichloro-1′-[(7-methyl-1H-indazol-5-yl)carbonyl]spiro[chromene-2,4′-piperidin]-4(3H)-one] | –
26 | – | COc1cc(C)cc2c1C(=O)CC1(CCN(C(=O)c3cccc(-c4cc[nH]n4)c3)CC1)O2 [Ex. M1, 5-methoxy-7-methyl-1′-[3-(1H-pyrazol-3-yl)benzoyl]spiro[chromene-2,4′-piperidin]-4(3H)-one] | IC50 (Table of Examples M1-M36): 37.5 nM
27 | 2210 nM | O=C1CC2(CCN(C(=O)c3cccc4cn[nH]c34)CC2)Oc2cc(-c3ccccc3)ccc21 [Ex. H18, 1′-(1H-indazol-7-ylcarbonyl)-7-phenylspiro[chromene-2,4′-piperidin]-4(3H)-one] | –
28 | > 1000 nM | CC(C)n1nnc2cc(C(=O)N3CCC4(CC3)CC(=O)c3cc(Cl)ccc3O4)ccc21 [Ex. L42, 6-chloro-1′-[(1-isopropyl-1H-1,2,3-benzotriazol-5-yl)carbonyl]spiro[chromene-2,4′-piperidin]-4(3H)-one] | –
29 | 52 nM | Cc1cc(C(=O)N2CCC3(CC2)CC(=O)c2cc(Cl)c(Cl)cc2O3)cc2cn[nH]c12 [Ex. A14, 6,7-dichloro-1′-[(7-methyl-1H-indazol-5-yl)carbonyl]spiro[chromene-2,4′-piperidin]-4(3H)-one] | –
30 | 279 nM | COc1cc(C)cc2c1C(=O)CC1(CCN(C(=O)c3cccc4cn[nH]c34)CC1)O2 [Ex. H4, 1′-(1H-indazol-7-ylcarbonyl)-5-methoxy-7-methylspiro[chromene-2,4′-piperidin]-4(3H)-one] | –
31 | 24.1 nM | Cc1cc2c(cc1C)C(=O)CC1(CCN(C(=O)c3cc(Cl)c4[nH]ncc4c3)CC1)O2 [Ex. B1, 1′-[(7-chloro-1H-indazol-5-yl)carbonyl]-6,7-dimethylspiro[chromene-2,4′-piperidin]-4(3H)-one] | –
32 | – | CN(C)C(=O)c1ccc2c(c1)C(=O)CC1(CCN(C(=O)c3cccc(-c4cc[nH]n4)c3)CC1)O2 [Ex. M29, N,N-dimethyl-4-oxo-1′-[3-(1H-pyrazol-3-yl)benzoyl]-3,4-dihydrospiro[chromene-2,4′-piperidine]-6-carboxamide] | IC50 (Table of Examples M1-M36): 574 nM
33 | – | COc1cc(Cl)cc2c1C(=O)CC1(CCN(C(=O)c3cccc(-c4ccn[nH]4)c3)CC1)O2 [Ex. O3, 7-chloro-5-methoxy-1′-[3-(1H-pyrazol-5-yl)benzoyl]spiro[chromene-2,4′-piperidin]-4(3H)-one] | IC50 (Table of Examples O1-O4): 455 nM
34 | 65 nM | COc1cccc2c1C(=O)CC1(CCN(C(=O)c3ccc4[nH]c5c(c4c3)CCCC5)CC1)O2 [Ex. L16, 5-methoxy-1′-(2,3,4,9-tetrahydro-1H-carbazol-6-ylcarbonyl)spiro[chromene-2,4′-piperidin]-4(3H)-one] | –
35 | – | O=C1CC2(CCN(C(=O)c3cccc(-c4cc[nH]n4)c3)CC2)Oc2c(Cl)cc(Cl)cc21 [Ex. M35, 6,8-dichloro-1′-[3-(1H-pyrazol-3-yl)benzoyl]spiro[chromene-2,4′-piperidin]-4(3H)-one] | IC50 (Table of Examples M1-M36): 1400 nM
36 | – | CS(=O)(=O)c1ccc2c(c1)C(=O)CC1(CCN(C(=O)c3cccc(-c4cc[nH]n4)c3)CC1)O2 [M20, 6-(methylsulfonyl)-1′-[3-(1H-pyrazol-3-yl)benzoyl]spiro[chromene-2,4′-piperidin]-4(3H)-one] | IC50 (Table of Examples M1-M36): 434 nM
37 | – | COc1cccc2c1C(=O)CC1(CCN(C(=O)c3cccc(-c4cc[nH]n4)c3)CC1)O2 [Ex. M27, 5-methoxy-1′-[3-(1H-pyrazol-3-yl)benzoyl]spiro[chromene-2,4′-piperidin]-4(3H)-one] | IC50 (Table of Examples M1-M36): 545 nM
